# Where two headings read alike, the source gives them in different places.
# Columns and labels:
# JC virus (JCV) [1] = assay: microbe, parasite or virus in culture; conditions: JC polyomavirus, COS-7
# [2] = MRC-5 cytotoxicity assay (MTS) and visual cytotoxicity; conditions: human
# HCMV AD169 = assay: HCMV plaque reduction assay, MRC-5 cells, strain AD169; type: cell-based, Human cytomegalovirus; conditions: for EC50: plaque assay, 6-days duration
# [3] = test system: BK virus (BKV), Gardner strain
# in vitro [4] = conditions: human
# [5] = human
# [6] = Secondary JCV assay (qPCR), COS7 cells; conditions: African green monkey
# JC virus (JCV) [7] = assay: Secondary JCV assay (qPCR), COS7 cells
# in vitro [8] = conditions: male, SD, rat, plasma
# in vitro [9] = conditions: African green monkey
# [10] = test system: BK virus (BKV), Gardner strain; assay: microbe, parasite or virus in culture; conditions: Betapolyomavirus hominis, HFF
# in vitro [11] = conditions: human; remark: listed apart in the source
# in vitro [12] = conditions: rat
# JC virus (JCV) [13] = test system: JC virus (JCV)
# in vitro [14] = conditions: both, human, plasma
# [15] = rat; for Peak area ratio, parent: 1 µM
# HFF cells = assay: Cell proliferation assay, human foreskin fibroblast (HFF) cells; type: cell-based; conditions: Homo sapiens, 72 h, cell number
# in vitro [16] = conditions: human; remark: listed apart in the source
# enterovirus-68 (EV-68) [17] = test system: enterovirus-68 (EV-68)
# enterovirus-68 (EV-68) [18] = assay: organism not typed; conditions: RD, read-out: EQ50
# [19] = test system: Japanese encephalitis virus (JEV)
# [20] = test system: Rift Valley fever virus (RVFV)
# [21] = test system: Venezuelan equine encephalitis virus (VEEV)
# [22] = molecular target: T1, SARS-Cov2 RdRp (nsp12-nsp7-nsp8) (Severe acute respiratory syndrome coronavirus 2, UniProt P0DTD1); type: biochemical; conditions: after addition of GTP and CTP (third and fourth nucleotides)
# [23] = molecular target: T1, SARS-Cov2 RdRp (nsp12-nsp7-nsp8); type: biochemical; conditions: primer extension; analog at 100 uM, printed 100 mM
# [24] = Liver (hepatic) S9 stability, human
# [25] = Liver (hepatic) S9 stability, rat
# [26] = Vero 76 cells without virus, test compounds
smiles,measurement,setting,value
CCCCCCCCCCCCCCCCOCCCOP(=O)(O)OCC1=CC(O)C(n2ccc(=O)[nH]c2=O)O1 (centres unmarked) [AB23039],EC50,JC virus (JCV) [1],210 nM
same,EC90,JC virus (JCV) [1],23.4 µM
same,CC50 at 6 days,[2],42.2 µM
same,EC50,"HCMV AD169; Human betaherpesvirus 5, 144 h, hCMV AD169, MRC5 cells",18.1 µM
same,antiviral activity against hCMV (in words),"HCMV AD169; MRC5 cells, AD169 strain",impressive antiviral activity
same,Selectivity Index (CC50/EC50),"HCMV AD169; hCMV AD169, MRC5 cells",2.33
same,Activity,[3],HI (key: NA (Not Active) SI50 = 0-3.9; LO (Slightly Active) SI50 = 4-9.9; MOD (Moderately Active) SI50 = 10-19.9; HI (Highly Active) SI50 = ≥20)
same,activity against BK virus (in words),[3],high activity
same,microsomal CLint at 1 μM,in vitro [4]; s9,5.2 µL/min/mg
same,half-life at 1 μM,"in vitro [4]; s9, T1/2",265 min
same,CLhep,[5]; 1 μM,9.1 mL/min/kg
same,Eh,[5]; 1 μM,44%
same,"Peak area ratio, parent","[5]; 15 min, 1 μM",3.41E−01
same,"Peak area ratio, parent","[5]; 60 min, 1 μM",3.09E−01
same,hydrolytic stability in hepatic S9 (in words),[5]; s9,most stable
same,T1/2,"[5]; s9, 1 μM",265 min
same,CC50 at 7 days,[6],46.8 µM
same,EC50,"JC virus (JCV) [7]; JC polyomavirus, COS-7, 168 h",3.07 µM
same,EC90,"JC virus (JCV) [7]; JC polyomavirus, COS-7, 168 h",9.44 µM
same,Activity,"JC virus (JCV) [7]; secondary JCV assay, COS7 cells, class by SI50",MOD (MOD (Moderately Active) SI50 = 10-19.9)
same,antiviral activity against JCV (in words),"JC virus (JCV) [7]; secondary testing, COS7 cells",moderate
same,half-life at 0.75 µM,in vitro [8],> 559 min
same,half-life at 0.75 μM,in vitro [8],> 558 min
same,CC50,in vitro [9],71.8 µM
same,EC50,[10],860 nM
same,EC90,[10],7.76 µM
same,CC50,in vitro [11],90.9 µM
same,microsomal CLint at 1 μM,in vitro [12]; s9,4 µL/min/mg
same,half-life at 1 μM,"in vitro [12]; s9, T1/2",347 min
same,Activity,JC virus (JCV) [13],HI (key: NA (Not Active) SI50 = 0-3.9; LO (Slightly Active) SI50 = 4-9.9; MOD (Moderately Active) SI50 = 10-19.9; HI (Highly Active) SI50 = ≥20)
same,activity against JC virus (in words),JC virus (JCV) [13],high activity
same,half-life at 0.75 µM,in vitro [14],> 559 min
same,half-life at 0.75 μM,in vitro [14],> 558 min
same,CLhep,[15]; 1 μM,14.3 mL/min/kg
same,Eh,[15]; 1 μM,26%
same,"Peak area ratio, parent",[15]; 15 min,3.61E−01
same,"Peak area ratio, parent",[15]; 60 min,3.25E−01
same,hydrolytic stability in hepatic S9 (in words),[15]; s9,most stable
same,T1/2,"[15]; s9, 1 μM",347 min
same,IC50,HFF cells,> 100 µM
same,CC50 at 7 d,in vitro [16],> 150 µM
CCOC(=O)c1ccc(OCCC2CCN(c3ccc(C)nn3)CC2)cc1 [Pirodavir],CC50,enterovirus-68 (EV-68) [17]; human,4.3 µg/mL
same,EC50,enterovirus-68 (EV-68) [18],0.039 µg/mL
O=c1ccn([C@@H]2OC(CO)=C[C@H]2O)c(=O)[nH]1 [AB21649],CC50,[19],1.7 mM
same,EC50,[19],> 1.7 mM
same,SI,"[19]; JEV, SI = CC50/EC50",0
same,CC50,Zika virus,1.5 mM
same,EC50,Zika virus,> 1.5 mM
same,SI,"Zika virus; Zika, SI = CC50/EC50",0
same,CC50,"Powassan virus (POWV); BHK-21 cells without virus, test compounds",> 2 mM
same,EC50,"Powassan virus (POWV); POWV, BHK-21 cells, test compounds",> 2 mM
same,SI,"Powassan virus (POWV); POWV, SI = CC50/EC50",0
same,CC50,dengue virus-2 (DV-2),> 2 mM
same,EC50,dengue virus-2 (DV-2),> 2 mM
same,SI,"dengue virus-2 (DV-2); DV-2, SI = CC50/EC50",0
same,CC50,Influenza B,1.3 mM
same,EC50,Influenza B,310 µM
same,antiviral activity against Influenza B (in words),Influenza B,exhibits antiviral activity
same,SI,"Influenza B; Influenza B, SI = CC50/EC50",4.2
same,CC50,RSV,1.9 mM
same,EC50,RSV,> 1.9 mM
same,SI,"RSV; RSV, SI = CC50/EC50",0
same,EC50,"HCMV AD169; hCMV AD169, MRC5 cells",> 100 µM
same,CC50,SARS-CoV-2,> 2 mM
same,EC50,SARS-CoV-2,> 2 mM
same,SI,"SARS-CoV-2; SARS-CoV-2, SI = CC50/EC50",0
same,CC50,TCRV,1.2 mM
same,EC50,TCRV,> 1.2 mM
same,SI,TCRV,0
same,CC50,enterovirus-68 (EV-68) [17],390 µM
same,EC50,enterovirus-68 (EV-68) [17]; 33°C,> 390 µM
same,SI,"enterovirus-68 (EV-68) [17]; EV-68, SI = CC50/EC50",0
same,CC50,"influenza A(H5N1); MDCK cells without virus, test compounds",1.3 mM
same,antiviral activity against Influenza (H5N1) (in words),influenza A(H5N1); Table 11,exhibits antiviral activity
same,EC50,"influenza A(H5N1); influenza A(H5N1), MDCK cells, test compounds",800 µM
same,SI,"influenza A(H5N1); influenza A(H5N1), SI = CC50/EC50",1.6
same,CC50,"Yellow fever virus (YFV); Huh7 cells without virus, test compounds",> 2 mM
same,EC50,"Yellow fever virus (YFV); YFV, Huh7 cells, test compounds",> 2 mM
same,SI,"Yellow fever virus (YFV); YFV, SI = CC50/EC50",0
same,CC50,influenza A(H1N1),1.4 mM
same,EC50,influenza A(H1N1),560 µM
same,antiviral activity against Influenza (H1N1) (in words),influenza A(H1N1),exhibits antiviral activity
same,SI,"influenza A(H1N1); influenza A(H1N1), SI = CC50/EC50",2.5
same,CC50,adenovirus-5 (Ad5),> 2 mM
same,EC50,adenovirus-5 (Ad5),> 2 mM
same,SI,"adenovirus-5 (Ad5); Ad5, SI = CC50/EC50",0
same,SI,"[20]; RVFV, SI = CC50/EC50",0
same,EC50,"[20]; RVFV, Vero 76 cells, test compounds",> 1.1 mM
same,CC50,[20]; [26],1.1 mM
same,CC50,MRC-5 cells,> 100 µM
same,SI,"SARS-CoV; SARS-CoV, SI = CC50/EC50",0
same,EC50,"SARS-CoV; SARS-CoV, Vero 76 cells, test compounds",> 1.5 mM
same,CC50,SARS-CoV; [26],1.5 mM
same,SI,"poliovirus-1 (POV-1); POV-1, SI = CC50/EC50",0
same,EC50,"poliovirus-1 (POV-1); POV-1, Vero 76 cells, test compounds",> 1 mM
same,CC50,poliovirus-1 (POV-1); [26],1 mM
same,SI,"[21]; VEEV, SI = CC50/EC50",0
same,EC50,"[21]; VEEV, Vero 76 cells, test compounds",> 1.1 mM
same,CC50,[21]; [26],1.1 mM
same,CC50,West Nile virus (WNV),1.4 mM
same,EC50,West Nile virus (WNV),> 1.4 mM
same,SI,"West Nile virus (WNV); WNV, SI = CC50/EC50",0
"Nc1nc2c(ncn2[C@@H]2OC(COP(=O)(O)OP(=O)(O)OP(=O)(O)O)=C[C@H]2O)c(=O)[nH]1 [ddhGTP, 3′-deoxy-3′,4′-didehydro-guanosine-triphosphate]",chain termination of RNA synthesis (in words),[22],caused chain termination of RNA synthesis
same,incorporation into RNA by SARS-Cov2 RdRp (in words),[23],incorporates onto RNA as GTP analog
COc1ccc2c(c1)[C@]13CCCC[C@@H]1[C@H](C2)N(C)CC3 [Dextromethorphan],T1/2,"[24]; human liver S9, 0.5 mg/mL, NADPH incubation (Table 24 gives without NADPH)",94.0 min
same,microsomal CLint at 1 μM,"[24]; human, s9",14.7 µL/min/mg
same,CLhep,"[24]; human, predicted from S9 CLint (well-stirred model)",14.3 mL/min/kg
same,CLhep,[25]; predicted from S9 CLint (well-stirred model),37.2 mL/min/kg
same,half-life at 1 μM,[25]; s9,58.8 min
same,microsomal CLint at 1 μM,[25]; s9,23.6 µL/min/mg

# Reference: patent publication US12466849B2, “Anti-viral and anti-tumoral compounds” (YEDA RESEARCH AND DEVELOPMENT CO. LTD, priority 2020, dated 2025)
